Experimental data published in paper PMC2855214 (Biochemistry, 2010).

Molecular target: T1, human UMP/CMP kinase (Homo sapiens, UniProt P30085)
T1 sequence (P30085 1-196): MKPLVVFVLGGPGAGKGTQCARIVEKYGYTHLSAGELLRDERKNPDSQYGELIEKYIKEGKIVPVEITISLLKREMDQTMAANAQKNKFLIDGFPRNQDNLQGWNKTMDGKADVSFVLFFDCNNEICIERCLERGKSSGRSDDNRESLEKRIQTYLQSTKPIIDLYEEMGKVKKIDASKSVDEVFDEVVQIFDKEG
Experiment: preparative enzymatic phosphorylation, product NMR
Format: biochemical
Details: ATP, Mg2+, pH 8, 37 °C

Nc1ccn([C@@H]2O[C@H](COP(=O)(O)O)[C@@H](O)C2(F)F)c(=O)n1 [F2CMP, 2′-Deoxy-2′,2′-difluorocytidine-5′-monophosphate]
preparative enzymatic phosphorylation, product NMR: F2CDP was generated enzymatically from F2CMP and ATP with human UMP/CMP kinase
